One may read the IC50 as the point on the concentration scale where inhibition reaches its midpoint. Broadly, the EC50 is the concentration at which the effect is half-maximal. By inhibition is commonly meant how much of the control response was suppressed.

Consider 20 compounds from patent US12220415B2, “WEE1 kinase inhibitors and methods of treating cancer using the same” (The Regents of the University of Colorado, A Body Corporate, priority 2018, dated 2025).

For one assay, the target named is recombinant WEE1 kinase (Homo sapiens (Human), UniProt P30291). Put plainly: LanthaScreen Eu TR-FRET kinase binding assay for WEE1 kinase inhibitory activity. To be noted: Kinase Tracer 178, 1 hour at room temperature. Here is the method:
A LanthaScreen™ kinase activity assay was conducted to assess WEE1 kinase inhibitory activity for compounds of this disclosure. […] All reagents were prepared as solutions in 1× kinase buffer A (Invitrogen) at 3× final desired concentration. […] Inhibitors were assayed in the final concentration range of 0.04 nM to 10 μM.
In general terms: TR-FRET usually uses a lanthanide donor and a delayed reading to cut background.

For assay [1], the system named is pCDK1 (Tyr15) in Daoy cell lysates. Put plainly: pCDK1 (Tyr15) ELISA in Daoy cell lysates. Format: cell-based, human. To be noted: 24 hours, single 220 nM dose. Here is the method:
WEE1 inactivates CDC2 through selective phosphorylation of the Tyr15 residue of cyclin-dependent kinase 1 (CDK1) stabilizing the CDC2-cyclin B complex. Therefore, inhibition of WEE1 kinase activity will prevent the phosphorylation of its substrate CDK1 at Tyr15. […] Following drug incubation, the media was aspirated from cells before cells were trypsinized and resuspended in TES/SB buffer containing protease inhibitors. Cells were lysed on ice through sonication, and cell lysates were diluted with ELISA Pathscan® sample diluent to a final volume of 100 μL and protein concentration of 0.05 mg/ml prior to use. The relative concentration of p-CDK1 Tyr15 was determined using an enzyme-linked immunosorbent assay according to recommended protocol (Cell Signaling, ELISA Pathscan® phosphor-Cdc2 (Tyr15)).
On the technique in general: ELISA stands for enzyme-linked immunosorbent assay.

A further assay deals with medulloblastoma cells. Particulars: Mol Cancer. 2014, 13:72, cited from earlier work.
A further assay has as its system ONS-76 cells. Put plainly: MTS cell viability assay in ONS-76 cells. To be noted: Homo sapiens; for EC50: read-out: EC50 cellular metabolic viability, ONS-76; for IC50: read-out: Mean IC50, ONS-76; for inhibition at 1.16 µM: @ 1160 nM, read-out: percent cell inhibition, ONS-76. The class given is cell-based. Here is the method: (§1) FIG. 1A is a dose-response study for ONS-76 cells treated with a concentration range of WEE1 inhibitors for 72 hours in an MTS assay. […] FIG. 1B is a dose-response study for Daoy cells treated with a concentration range of WEE1 inhibitors for 72 hours in an MTS assay.
(§2) To evaluate the effect of the WEE1 kinase inhibitors, Daoy cells and ONS-76 cells (human primary medulloblastoma cell lines) were treated with test compounds and cell growth was by MTS assay (FIGS. 1A and 1B). […] Cells were incubated for 72 hr with 50 μL of each diluted drug solution. Cell viability was measured by 2 hr incubation with 30 μL CellTiter 96® AQueous One Cell Proliferation reagent (Promega) and formazan concentration assessed through colorimetric analysis using a BioTek Synergy H1 plate reader (Absorption=490 nm).

For a further assay, the system named is Daoy cells. Put plainly: MTS cell viability assay in Daoy cells. The class given is cell-based, human. To be noted: for EC50: read-out: EC50 cellular metabolic viability, Daoy; for activity at 0.6 µM: at 600 nM; for inhibition at 0.6 µM: 72 hr, @ 600 nM, read-out: percent cell inhibition, DAOY. Here is the method:
as §1, §2

Assay [2] relates to murine AML-expressing MLL-ENL, FLT3-ITD, and luciferase. Put plainly: Murine AML model, disease progression by luciferase expression. The class given is in vivo. Particulars: mice with AML, cytarabine alone. As to the method:
In a second toxicity study, mice without leukemia were treated with cytarabine and/or a WEE1 inhibitor for 5 of 7 days for 3 consecutive weeks. […] The inventors then used an aggressive model of murine AML-expressing MLL-ENL, FLT3-ITD, and luciferase, to determine whether WEE1 inhibition would enhance the anti-leukemia effects of cytarabine.

The mark [3] stands for this setting: ONS-76 cells, 72 hours, MTS assay, n=3, ±=S.D.
Setting [4] is: Homo sapiens, Daoy cells, 72 hours, MTS assay.
[5] abbreviates: Homo sapiens, Daoy cells, MTS assay.

Where two headings read alike, the source gives them in different places.

Chain of recombinant WEE1 kinase (P30291 whole entry): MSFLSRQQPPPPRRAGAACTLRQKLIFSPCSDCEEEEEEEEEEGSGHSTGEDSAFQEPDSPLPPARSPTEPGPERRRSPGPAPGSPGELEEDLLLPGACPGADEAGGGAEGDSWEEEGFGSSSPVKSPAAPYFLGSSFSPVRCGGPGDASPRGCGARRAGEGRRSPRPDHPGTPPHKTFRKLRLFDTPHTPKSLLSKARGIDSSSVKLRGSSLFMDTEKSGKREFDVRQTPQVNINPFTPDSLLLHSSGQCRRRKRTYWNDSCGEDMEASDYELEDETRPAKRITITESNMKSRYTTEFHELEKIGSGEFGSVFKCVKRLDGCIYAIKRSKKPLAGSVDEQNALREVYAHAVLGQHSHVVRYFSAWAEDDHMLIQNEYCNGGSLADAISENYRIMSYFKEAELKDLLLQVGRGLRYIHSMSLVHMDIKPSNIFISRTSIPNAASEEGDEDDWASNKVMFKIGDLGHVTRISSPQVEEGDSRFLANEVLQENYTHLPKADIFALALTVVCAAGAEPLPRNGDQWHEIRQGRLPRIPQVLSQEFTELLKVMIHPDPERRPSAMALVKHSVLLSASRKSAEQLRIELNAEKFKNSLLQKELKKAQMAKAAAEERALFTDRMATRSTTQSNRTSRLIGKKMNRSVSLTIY

For `C=CCn1c(=O)c2cnc(N)nc2n1-c1cccc(C(C)(C)O)n1`, the IC50 at recombinant WEE1 kinase was found to be 17.7 nM.

Take `C=CCn1c(=O)c2cnc(NCc3ccc(CC)cc3)nc2n1-c1cccc(C(C)(C)O)n1`: on recombinant WEE1 kinase, the IC50 is 13.6 nM.

With `C=CCn1c(=O)c2cnc(Nc3cccc(C#N)c3)nc2n1-c1cccc(C(C)(C)O)n1`, the concentration for half-maximal inhibition (IC50) at recombinant WEE1 kinase worked out at 78.1 nM.

As to `C=CCn1c(=O)c2cnc(Nc3cccc(C(=O)N(C)C)c3)nc2n1-c1cccc(C(C)(C)O)n1`, the concentration for half-maximal inhibition (IC50) at recombinant WEE1 kinase amounted to 27.3 nM.

Take `COc1ccc(Cn2c(=O)c3cnc(Nc4ccc(N5CCN(C)CC5)cc4)nc3n2-c2cccc(C(C)(C)O)n2)cc1`: the IC50 on recombinant WEE1 kinase was 89.7 nM.

For the compound `C=C(C)c1cccc(-n2c3nc(Nc4ccc(N5CCN(C)CC5)cc4)ncc3c(=O)n2C)n1`, the IC50 on recombinant WEE1 kinase is 179 nM.

`C=CCn1c(=O)c2cnc(Nc3ccc(N4CCN(C)CC4)cc3)nc2n1-c1cccc(CO)c1`: at recombinant WEE1 kinase, the concentration for half-maximal inhibition (IC50) stood at 10.4 nM.

As to `C=CCn1c(=O)c2cnc(Nc3ccc(N4CCN(C)CC4)cc3)nc2n1-c1cccc(C(C)(C)O)n1` [AZD1775, 2-allyl-1-(6-(2-hydroxypropan-2-yl)pyridin-2-yl)-6-((4-(4-methylpiperazin-1-yl)phenyl)amino)-1,2-dihydro-3H-pyrazolo[3,4-d]pyrimidin-3-one, reference compound], the “pCDK1(Tyr15) level compared to DMSO control” value in assay [1] is recorded as “decrease”. For the same compound, in the assay on medulloblastoma cells (medulloblastoma cells), the “activity in combination with cisplatin” value is on record as “synergistic activity”. Moreover, the “single agent effect in medulloblastoma” value with medulloblastoma cells (single agent) is “suppressed cell growth, induced apoptosis, and decreased tumor growth”. Also, the 50% effective concentration (EC50) came to 290 nM in the assay on ONS-76 cells (ONS-76, 72 h); 150 nM in the assay on Daoy cells (Homo sapiens, Daoy, 72 h); 179 ± 16 nM with Daoy cells (Daoy cells, 72 hours, MTS assay, n=3, ±=S.D.). For the same compound, the IC50 in the assay on ONS-76 cells (ONS-76, 72 h) was 221 nM; in the assay with Daoy cells (Homo sapiens, Daoy, 72 h, read-out: Mean IC50, DAOY), 378 nM.

In the case of `C=CCn1c(=O)c2cnc(Nc3ccc(N4CCN(C)CC4)cc3)nc2n1-c1cccc(C(C)(C)O)c1` [CM-169, 2-allyl-1-(3-(2-hydroxypropan-2-yl)phenyl)-6-((4-(4-methylpiperazin-1-yl)phenyl)amino)-1,2-dihydro-3H-pyrazolo[3,4-d]pyrimidin-3-one], the “pCDK1(Tyr15) level compared to DMSO control” value in assay [1] is “statistically the same as that for AZD1775”. The inhibition at 1.16 µM in the assay with ONS-76 cells (ONS-76 cells, 72 hr, MTS assay) amounted to 61%.

As to `C=CCn1c(=O)c2cnc(Nc3ccc(N4CCN(C)CC4)cc3)nc2n1-c1cccc(CO)n1` [CM-170, 2-allyl-1-(6-(hydroxymethyl)pyridin-2-yl)-6-((4-(4-methylpiperazin-1-yl)phenyl)amino)-1,2-dihydro-3H-pyrazolo[3,4-d]pyrimidin-3-one], the inhibition at 1.16 µM in the assay with ONS-76 cells (ONS-76 cells, 72 hr, MTS assay) was 59%.

For `C=CCn1c(=O)c2cnc(Nc3ccc(OCCN(C)C)cc3)nc2n1-c1cccc(C(C)(C)O)n1` [CM-181, 2-allyl-6-((4-(2-(dimethylamino)ethoxy)phenyl)amino)-1-(6-(2-hydroxypropan-2-yl)pyridin-2-yl)-1,2-dihydro-3H-pyrazolo[3,4-d]pyrimidin-3-one], the “pCDK1(Tyr15) level compared to DMSO control” value in assay [1] is recorded as “decrease”. Also, the EC50 with ONS-76 cells (setting [3]) worked out at 203 ± 40 nM. Also, the IC50 in the assay on ONS-76 cells (ONS-76 cells, 72 hr, MTS assay) is 273 nM. In addition, the activity at 0.6 µM in the assay with Daoy cells (setting [4]) was determined as 81%. Moreover, in the assay with Daoy cells (setting [5]), the inhibition at 0.6 µM is 82%.

Take `C=CCn1c(=O)c2cnc(Nc3cccc(CN(C)C)c3)nc2n1-c1cccc(C(C)(C)O)n1` [KAC-014, 2-allyl-6-((3-((dimethylamino)methyl)phenyl)amino)-1-(6-(2-hydroxypropan-2-yl)pyridin-2-yl)-1,2-dihydro-3H-pyrazolo[3,4-d]pyrimidin-3-one]: the inhibition at 1.16 µM in the assay on ONS-76 cells (ONS-76 cells, 72 hr, MTS assay) worked out at 40%.

In the case of `C=CCn1c(=O)c2cnc(Nc3ccccc3)nc2n1-c1cccc(C(C)(C)O)n1` [KAC-017, 2-allyl-1-(6-(2-hydroxypropan-2-yl)pyridin-2-yl)-6-(phenylamino)-1,2-dihydro-3H-pyrazolo[3,4-d]pyrimidin-3-one], the inhibition at 1.16 µM in the assay on ONS-76 cells (ONS-76 cells, 72 hr, MTS assay) worked out at 32%.

Consider `C=CCn1c(=O)c2cnc(Nc3cccc(N(C)C)c3)nc2n1-c1cccc(C(C)(C)O)n1` [KAC-019, 2-allyl-6-((3-(dimethylamino)phenyl)amino)-1-(6-(2-hydroxypropan-2-yl)pyridin-2-yl)-1,2-dihydro-3H-pyrazolo[3,4-d]pyrimidin-3-one], for which the inhibition at 1.16 µM in the assay on ONS-76 cells (ONS-76 cells, 72 hr, MTS assay) stood at 33%.

Take `C=CCn1c(=O)c2cnc(Nc3ccc(CCN(C)C)cc3)nc2n1-c1cccc(C(C)(C)O)n1` [KAC-034, 2-allyl-6-((4-(2-(dimethylamino)ethyl)phenyl)amino)-1-(6-(2-hydroxypropan-2-yl)pyridin-2-yl)-1,2-dihydro-3H-pyrazolo[3,4-d]pyrimidin-3-one]: the “pCDK1(Tyr15) level compared to DMSO control” value in assay [1] is on record as “decrease”. Also, the concentration for a half-maximal effect (EC50) in the assay with ONS-76 cells (setting [3]) came to 252 ± 9 nM. The IC50 with ONS-76 cells (ONS-76 cells, 72 hr, MTS assay) is 495 nM. The activity at 0.6 µM in the assay on Daoy cells (setting [4]) came to 84%. Besides, the inhibition at 0.6 µM in the assay with Daoy cells (setting [5]) stood at 83%.

Take `Nc1ccn([C@@H]2O[C@H](CO)[C@@H](O)[C@@H]2O)c(=O)n1` [cytarabine]: in assay [2], the “leukemia progression, measured by luciferase expression over time” value is listed as “slowed the progression of the leukemia”.

Regarding `C=CCn1c(=O)c2cnc(Nc3ccccc3)nc2n1-c1cccc(C(C)(C)O)n1` [drawing 14], the IC50 on recombinant WEE1 kinase amounted to 9.6 nM.

As to `C=CCn1c(=O)c2cnc(Nc3cccc(CN(C)C)c3)nc2n1-c1cccc(C(C)(C)O)n1` [drawing 18], the IC50 on recombinant WEE1 kinase was found to be 9.1 nM.

In the case of `C=CCn1c(=O)c2cnc(Nc3ccc(CCN(C)C)cc3)nc2n1-c1cccc(C(C)(C)O)n1` [drawing 20], at recombinant WEE1 kinase, the IC50 is 1.8 nM.

Turning to `C=CCn1c(=O)c2cnc(Nc3ccc(OCCN(C)C)cc3)nc2n1-c1cccc(C(C)(C)O)n1` [drawing 21], at recombinant WEE1 kinase, the half-inhibitory concentration (IC50) was 7.8 nM.
